# pIC50: −log10 of the molar value. Values joined by “and” are separate entries in the source; they are usually repeats but may differ in a detail not shown here. Identical values can stand only once. Like-named read-outs stand apart in the source and are kept apart here. Marks after values point to notes of the source that are not given here.
# How the values were obtained:
# [1] = test system: replicating M. tuberculosis; assay: Aero RLU (Relative Light Units under aerobic conditions), replicating culture; type: cell-based; settings: two experiments
# [2] = test system: P. falciparum NF54; assay: In vitro P. falciparum 72 hour assay (48+24); type: cell-based; settings: Plasmodium falciparum, NF54
# Protocol: EXAMPLE. In vitro and in vivo activity against different species of Plasmodium parasites. CEM-101 was tested against intra-erythrocytic forms of P. falciparum derived from asynchronous cultures of the strain […]. […] CEM-101 was followed for 120 h. CEM-101 has delayed activity when compared to other agents.
# In vitro P. falciparum data for CEM-101 in the 72 h Assay (48+24)
# [3] = test system: replicating M. tuberculosis; assay: Microplate Alamar Blue Assay (MABA), replicating culture; type: cell-based; settings: two experiments
# [4] = test system: P. berghei ANKA sporozoites; assay: Causal prophylactic P. berghei sporozoite mouse model; type: in vivo
# Protocol: EXAMPLE. CEM-101 activity as prophylactic. Mice inoculated IV with 0.1 ml, 100,000 P. berghei ANKA sporozoites from mosquitoes. Drug administered Day −1, 0 and 1, Once daily for 3 days.
# [5] = test system: non-replicating M. tuberculosis; assay: Low Oxygen Recovery Assay (LORA), non-replicating culture; type: cell-based; settings: non-replicating culture (anaerobic); two experiments
# [6] = test system: clinical XDR strains of M. tuberculosis; assay: microbe, parasite or virus in culture; type: cell-based; settings: Mycobacterium tuberculosis
# [7] = test system: M. avium LPR ATCC 49601; assay: Murine model of M. avium infection, CFU in spleens and lungs; type: in vivo; settings: mice; for reduction in growth of MAC LPR in the spleens and lungs compared to the late controls: P<0.05
# [8] = test system: M. avium; assay: M. avium in vitro activity summary (MIC90, MBC); type: cell-based
# [9] = test system: P. falciparum lines Dd2 and 7G8 and azithromycin-resistant lines; assay: Fidock lab 96 hours assay on P. falciparum lines; type: cell-based
# Source text: EXAMPLE. CEM101 is active when tested against Azi resistant strain (Fidock).
# [10] = Systemic toxicity in mice with SC or PO dosing; type: in vivo; settings: SC or PO dosing as high as 160 mg/kg/d×3 days
# Protocol: For blood stage infections, the minimum curative SC dose was 40 mg/kg/d×3 days, while 80 mg/kg/d×3 was the minimum active dose for PO route. In the P. berghei causal mouse model, CEM-101 was curative at 40 mg/kg/d×3 days with SC or PO dosing.
# [11] = test system: luciferase expressing P. berghei liver stage parasites; assay: Liver stage activity by in vivo imaging; settings: mice, PO dosing at 40 mg/kg/d×3 days
# Protocol: Efficacy was measured by number of mice with delayed parasitemia and mice that were malaria free at day 31. Antimalarial liver stage activity was assessed in mice infected with luciferase expressing P. berghei parasites using an in vivo imaging system.
# [12] = test system: P. falciparum NF54; assay: In vitro P. falciparum 120 hour assay (96+24); type: cell-based; settings: Plasmodium falciparum, NF54
# Protocol: EXAMPLE. In vitro and in vivo activity against different species of Plasmodium parasites. CEM-101 was tested against intra-erythrocytic forms of P. falciparum derived from asynchronous cultures of the strain […]. Parasite growth over 120 h was measured by the incorporation of radiolabelled [^3H]hypoxanthine (in hypoxanthine free culture medium) added after 96 h of drug incubation and 24 h prior to the termination of the test. CEM-101 was followed for 120 h. CEM-101 has delayed activity when compared to other agents.
# In vitro P. falciparum data for CEM-101 in the 120 h Assay (96+24)
# [13] = test system: MTb growing inside macrophages; assay: MTb inside infected macrophages, ATP readout; type: cell-based, M. tuberculosis; settings: 1 μg/mL
# [14] = type: in vitro ADME; settings: 24 h
# Protocol: EXAMPLE. Intracellular activity of CEM-101. […] After 24 hours, the intracellular concentration of CEM-101 was more than 2-fold higher than any of azithromycin, clarithromycin, and telithromycin, in decreasing order of ability for intracellular accumulation. CEM-101 intracellular accumulation was dose dependent.
compound,measurement,setting,value
"CC[C@H]1OC(=O)[C@@](C)(F)C(=O)[C@H](C)[C@@H](O[C@@H]2O[C@H](C)C[C@H](N(C)C)[C@H]2O)[C@](C)(OC)C[C@@H](C)C(=O)[C@H](C)[C@H]2N(CCCCn3cc(-c4cccc(N)c4)nn3)C(=O)O[C@]12C [CEM-101, solithromycin]",Aero RLU,[1],7.19 µM and 6.95 µM
same,IC50,"[2]; 72 h assay (48+24), read-out: IC50 NF54 TEST 1",0.919 mg/L
same,IC50,"[2]; 72 h assay (48+24), read-out: IC50 NF54 TEST 2",1.54 mg/L
same,IC50,"[2]; 72 h assay (48+24), read-out: IC50 NF54 TEST 3",1.49 mg/L
same,IC50,"[2]; 72 h assay (48+24), read-out: IC50 NF54 TEST 4",1.26 mg/L
same,IC50,"[2]; 72 hour assay (48+24), read-out: IC50 NF54 Test 1",0.919 mg/L
same,IC50,"[2]; 72 hour assay (48+24), read-out: IC50 NF54 Test 2",1.54 mg/L
same,IC50,"[2]; 72 hour assay (48+24), read-out: IC50 NF54 Test 3",1.49 mg/L
same,IC50,"[2]; 72 hour assay (48+24), read-out: IC50 NF54 Test 4",1.26 mg/L
same,MIC,[3]; Mycobacterium tuberculosis,9.23 µM
same,MIC,[3],9.17 µM
same,mice remaining parasite free,[4]; 20 mg/kg/d×3 days,3/5
same,outcome in the P. berghei causal mouse model,[4]; 40 mg/kg/d×3 days with SC or PO dosing,curative
same,prophylactic activity,"[4]; causal mouse malaria models, PO dosing at 40 mg/kg/d×3 days",100%
same,blood stage infection after prophylactic dosing,[4]; mice dosed as low as 40 mg/kg/d×3 days,no blood stage infection was detected
same,Activity,"[4]; mice, PO, dose 80, once daily Day -1, 0 and 1, (3 mice)",Complete curative
same,Activity,"[4]; mice, PO, dose 120, once daily Day -1, 0 and 1, (3 mice)",Complete curative
same,Activity,"[4]; mice, PO, dose 160, once daily Day -1, 0 and 1",Complete curative
same,Activity,"[4]; mice, SC, dose 40, once daily Day -1, 0 and 1",Complete curative
same,Activity,"[4]; mice, SC, dose 80, once daily Day -1, 0 and 1",Complete curative
same,Activity,"[4]; mice, SC, dose 120, once daily Day -1, 0 and 1",Complete curative
same,Activity,"[4]; mice, SC, dose 160, once daily Day -1, 0 and 1",Complete curative
same,minimum active dose,"[4]; mice, causal prophylactic model",20 mg/kg/d×3 days
same,LORA,[5],10.43 µM and 7.55 µM
same,MIC,"[6]; 168 h, strain OB005, 1 week",3.12 mg/L
same,MIC,"[6]; 168 h, strain OB031, 1 week",0.049 mg/L
same,MIC,"[6]; 168 h, strain OB076a, 1 week",0.049 mg/L
same,MIC,"[6]; 168 h, strain OB076b, 1 week",0.049 mg/L
same,MIC,"[6]; 168 h, strain OB082, 1 week",0.049 mg/L
same,MIC,"[6]; 336 h, strain OB005, 2 weeks",12.5 mg/L
same,MIC,"[6]; 336 h, strain OB019, 2 weeks",1.56 mg/L
same,MIC,"[6]; 336 h, strain OB031, 2 weeks",0.78 to 1.56 mg/L
same,MIC,"[6]; 336 h, strain OB062, 2 weeks",0.39 to 0.78 mg/L
same,MIC,"[6]; 336 h, strain OB076a, 2 weeks",0.098 mg/L
same,MIC,"[6]; 336 h, strain OB076b, 2 weeks",0.049 mg/L
same,MIC,"[6]; 336 h, strain OB081, 2 weeks",12.5 mg/L
same,MIC,"[6]; 336 h, strain OB082, 2 weeks",0.098 mg/L
same,MIC,"[6]; strain OB031, after a week (as the cell number increased)",0.78 to 1.56 mg/L
same,MIC,"[6]; strain OB031, initially",0.049 mg/L
same,"reduction in growth of MAC LPR in the spleens and lungs compared to the late controls, significant or not","[7]; 25 mg/kg orally 5 days/week for 4 weeks, P>0.05",not
same,reduction in growth of MAC LPR in the spleens and lungs compared to the late controls,[7]; 50 mg/kg orally 5 days/week for 4 weeks,significant
same,reduction in growth of MAC LPR in the spleens and lungs compared to the late controls,[7]; 100 mg/kg orally 5 days/week for 4 weeks,significant
same,reduction in growth of MAC LPR in the spleens and lungs compared to the late controls,[7]; 200 mg/kg orally 5 days/week for 4 weeks,significant
same,reduction in CFU of MAC LPR in spleens and lungs compared to the CLA 200 mg/kg group,"[7]; 200 mg/kg, difference not statistically significant (P>0.05)",greater
same,MBC,"[8]; Mycobacterium avium, all strains tested, read-out: MBC",2 mg/L
same,MIC,"[8]; Mycobacterium avium, susceptible phenotype, N=24, read-out: MIC",1 mg/L
same,MBC (range),[8]; N=30,2 (2) μg/mL
same,MIC90 (range),[8]; N=30,1 (1) μg/mL
same,MBC,"[8]; resistant phenotype, MBCs calculated for 4 of the resistant strains",2^a μg/mL
same,MIC,"[8]; resistant phenotype, N=6",1 mg/L
same,MBC,"[8]; susceptible phenotype, N=24",2 mg/L
same,pIC50,"[9]; Plasmodium falciparum, 96 h, line 7G8 (multidrug resistant), 96 hours, read-out: Mean IC50",7.73
same,pIC50,"[9]; Plasmodium falciparum, 96 h, line AZR 7G8-R1, 96 hours, read-out: Mean IC50",7.10
same,pIC50,"[9]; Plasmodium falciparum, 96 h, line AZR Dd2-R2, 96 hours, runs 1-3, read-out: IC50",7.14
same,pIC50,"[9]; Plasmodium falciparum, 96 h, line AZR Dd2-R2, 96 hours, read-out: Mean IC50",7.16
same,pIC50,"[9]; Plasmodium falciparum, 96 h, line Dd2 (multidrug resistant), 96 hours, read-out: Mean IC50",7.41
same,pIC50,"[9]; line AZR Dd2-R2, 96 hours, runs 1-3, read-out: IC50",7.19 and 7.16
same,systemic toxicity,[10],No systemic toxicity
same,antimalarial activity against liver stage parasites by in vivo imaging,[11],No demonstrable antimalarial activity
same,IC50,"[12]; 120 h assay (96+24), read-out: IC50 NF54",0.0024 mg/L
same,IC50,"[12]; 120 hour assay (96+24), read-out: IC50 NF54 Test 1",< 0.156 mg/L
same,IC50,"[12]; 120 hour assay (96+24), read-out: IC50 NF54 Test 2",< 0.015 mg/L
same,IC50,"[12]; 120 hour assay (96+24), read-out: IC50 NF54 Test 3",0.0024 mg/L
same,decrease in ATP of MTb released from infected treated cells,[13],10 fold
same,"intracellular concentration relative to azithromycin, clarithromycin and telithromycin",[14],more than 2 fold
